Patent publication US20240116892A1, “HETEROCYCLIC AMIDE AND UREA COMPOUNDS AS JAK2 INHIBITORS” (Ajax Therapeutics, Inc., priority 2022, published 2024)

These compounds were tested against JAK2 (JH1 domain-catalytic, Y1007F, Y1008F) kinase (Homo sapiens (Human), UniProt O60674, Y1007F/Y1008F) (assay: JAK2 JH1 Domain Binding Assay). Conditions: qPCR readout.
Protocol: JAK2 (JH1 domain-catalytic, Y1007F, Y1008F) kinase was expressed as N-terminal fusion to the DNA binding domain of NFkB in transiently transfected HEK293 cells and subsequently tagged with DNA for qPCR detection. Streptavidin-coated magnetic beads were treated with biotinylated small molecule ligands for 30 minutes at room temperature to generate affinity resins for kinase assays. The liganded beads were blocked with excess biotin and washed with blocking buffer (SeaBlock (Pierce), 1% BSA, 0.05% Tween 20, 1 mmol/L DTT) to remove unbound ligand and to reduce nonspecific phage binding. Binding reactions were assembled by combining kinases, liganded affinity beads, and test compounds in 1× binding buffer (1× PBS, 0.05% Tween 20, 0.1% BSA, 1 mmol/L DTT). Test compound was prepared as 111× stocks in 100% DMSO and directly diluted into the assay wells. All reactions were performed in polypropylene 384-well plates in a final volume of 0.02 mL. The assay plates were incubated at room temperature with shaking for 1 hour and the affinity beads were washed with wash buffer (1× PBS, 0.05% Tween 20). The beads were then re-suspended in elution buffer (1× PBS, 0.05% Tween 20, 0.5 μmol/L non-biotinylated affinity ligand) and incubated at room temperature with shaking for 30 minutes. The kinase concentration in the eluate was measured by qPCR.

JAK2 (JH1 domain-catalytic, Y1007F, Y1008F) kinase, sequence (O60674 849-1124 Y1007F/Y1008F): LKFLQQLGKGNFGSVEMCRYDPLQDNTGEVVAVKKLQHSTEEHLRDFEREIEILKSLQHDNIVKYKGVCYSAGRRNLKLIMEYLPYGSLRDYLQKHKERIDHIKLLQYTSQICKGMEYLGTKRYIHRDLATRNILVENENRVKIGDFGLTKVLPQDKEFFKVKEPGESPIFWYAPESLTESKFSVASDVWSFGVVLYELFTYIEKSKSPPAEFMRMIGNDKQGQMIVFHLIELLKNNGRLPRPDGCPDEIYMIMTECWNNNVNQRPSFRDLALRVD

Compound	Kd
Cc1c[nH]c2ncc(N3CCC(N(C)C(=O)Nc4cc(C(F)(F)F)cn(C)c4=O)C(F)(F)C3)nc12 (single isomer, unassigned) [Example I-33-a, (R)- or (S)-1-(3,3-difluoro-1-(7-methyl-5H-pyrrolo[2,3-b]pyrazin-2-yl)piperidin-4-yl)-1-methyl-3-(1-methyl-2-oxo-5-(trifluoromethyl)-1,2-dihydropyridin-3-yl)urea]	< 10 nM
Cc1c[nH]c2ncc(N3CCC(N(C)C(=O)Nc4cc(C(F)(F)F)cn(C)c4=O)C(F)(F)C3)nc12 (single isomer, unassigned) [Example I-33-b, (S)- or (R)-1-(3,3-difluoro-1-(7-methyl-5H-pyrrolo[2,3-b]pyrazin-2-yl)piperidin-4-yl)-1-methyl-3-(1-methyl-2-oxo-5-(trifluoromethyl)-1,2-dihydropyridin-3-yl)urea]	< 10 nM
CN(C(=O)Nc1cc(C(F)(F)F)cn(C)c1=O)[C@@H]1CCN(c2cnc(NC(=O)C3CC3)cn2)CC1(F)F (single isomer, unassigned) [Example I-34-a]	< 10 nM
CN(C(=O)Nc1cc(C(F)(F)F)cn(C)c1=O)[C@H]1CCN(c2cnc(NC(=O)C3CC3)cn2)CC1(F)F (single isomer, unassigned) [Example I-34-b]	< 10 nM
CC(=O)Nc1cnc(N2CC[C@@H](N(C)C(=O)Nc3cc(C(F)(F)F)cn(C)c3=O)C(F)(F)C2)cn1 (single isomer, unassigned) [Example I-35-a]	< 10 nM
CC(=O)Nc1cnc(N2CC[C@H](N(C)C(=O)Nc3cc(C(F)(F)F)cn(C)c3=O)C(F)(F)C2)cn1 (single isomer, unassigned) [Example I-35-b]	< 10 nM
Cc1n[nH]c2ncc(N3CCC(N(C)C(=O)Nc4cc(C(F)(F)F)cn(C)c4=O)C(F)(F)C3)cc12 (single isomer, unassigned) [Example I-36-a, (R)- or (S)-1-(3,3-difluoro-1-(3-methyl-1H-pyrazolo[3,4-b]pyridin-5-yl)piperidin-4-yl)-1-methyl-3-(1-methyl-2-oxo-5-(trifluoromethyl)-1,2-dihydropyridin-3-yl)urea]	< 10 nM
Cc1n[nH]c2ncc(N3CCC(N(C)C(=O)Nc4cc(C(F)(F)F)cn(C)c4=O)C(F)(F)C3)cc12 (single isomer, unassigned) [Example I-36-b, (S)- or (R)-1-(3,3-difluoro-1-(3-methyl-1H-pyrazolo[3,4-b]pyridin-5-yl)piperidin-4-yl)-1-methyl-3-(1-methyl-2-oxo-5-(trifluoromethyl)-1,2-dihydropyridin-3-yl)urea]	< 10 nM
Cc1cc2nc(N3CCC(N(C)C(=O)Nc4cc(C(F)(F)F)cn(C)c4=O)C(F)(F)C3)cnc2[nH]1 (single isomer, unassigned) [Example I-37-a, (R)- or (S)-1-(3,3-difluoro-1-(6-methyl-5H-pyrrolo[2,3-b]pyrazin-2-yl)piperidin-4-yl)-1-methyl-3-(1-methyl-2-oxo-5-(trifluoromethyl)-1,2-dihydropyridin-3-yl)urea]	< 10 nM
Cc1cc2nc(N3CCC(N(C)C(=O)Nc4cc(C(F)(F)F)cn(C)c4=O)C(F)(F)C3)cnc2[nH]1 (single isomer, unassigned) [Example I-37-b, (S)- or (R)-1-(3,3-difluoro-1-(6-methyl-5H-pyrrolo[2,3-b]pyrazin-2-yl)piperidin-4-yl)-1-methyl-3-(1-methyl-2-oxo-5-(trifluoromethyl)-1,2-dihydropyridin-3-yl)urea]	< 10 nM
CN(C(=O)Nc1cc(C(F)(F)F)cn(C)c1=O)C1CCCN(c2cnc3[nH]ccc3n2)CC1 (single isomer, unassigned) [Example I-41-a, (R)- or (S)-1-(1-(5H-pyrrolo[2,3-b]pyrazin-2-yl)azepan-4-yl)-1-methyl-3-(1-methyl-2-oxo-5-(trifluoromethyl)-1,2-dihydropyridin-3-yl)urea]	1000 to 5000 nM
CN(C(=O)Nc1cc(C(F)(F)F)cn(C)c1=O)C1CCCN(c2cnc3[nH]ccc3n2)CC1 (single isomer, unassigned) [Example I-41-b, (S)- or (R)-1-(1-(5H-pyrrolo[2,3-b]pyrazin-2-yl)azepan-4-yl)-1-methyl-3-(1-methyl-2-oxo-5-(trifluoromethyl)-1,2-dihydropyridin-3-yl)urea]	50 to 1000 nM
CN(C(=O)Nc1cc(C(F)(F)F)cn(C)c1=O)[C@@H]1C[C@@H]2C[C@H]1CN2c1cnc(NC(=O)C2CC2)cn1 (single isomer, unassigned) [Example I-44-a]	10 to 50 nM
CN(C(=O)Nc1cc(C(F)(F)F)cn(C)c1=O)[C@H]1C[C@H]2C[C@@H]1CN2c1cnc(NC(=O)C2CC2)cn1 (single isomer, unassigned) [Example I-44-b]	10 to 50 nM
CN(C(=O)Nc1cc(C(F)(F)F)cn(C)c1=O)[C@H]1CCN(c2cnc3[nH]ncc3c2)CC1(C)C (single isomer, unassigned) [Example I-45-a]	< 10 nM
CN(C(=O)Nc1cc(C(F)(F)F)cn(C)c1=O)[C@@H]1CCN(c2cnc3[nH]ncc3c2)CC1(C)C (single isomer, unassigned) [Example I-45-b]	10 to 50 nM
CN(C(=O)Nc1cc(C(F)(F)F)cn(C)c1=O)C1CCN(c2cnc3[nH]ccc3n2)CC1(C)C (single isomer, unassigned) [Example I-49-a, (R)- or (S)-1-(3,3-dimethyl-1-(5H-pyrrolo[2,3-b]pyrazin-2-yl)piperidin-4-yl)-1-methyl-3-(1-methyl-2-oxo-5-(trifluoromethyl)-1,2-dihydropyridin-3-yl)urea]	< 10 nM

Compound	Kd
CN(C(=O)Nc1cc(C(F)(F)F)cn(C)c1=O)C1CCN(c2cnc3[nH]ccc3n2)CC1(C)C (single isomer, unassigned) [Example I-49-b, (S)- or (R)-1-(3,3-dimethyl-1-(5H-pyrrolo[2,3-b]pyrazin-2-yl)piperidin-4-yl)-1-methyl-3-(1-methyl-2-oxo-5-(trifluoromethyl)-1,2-dihydropyridin-3-yl)urea]	< 10 nM
C[C@@H]1CN(C(=O)Nc2cc(C(F)(F)F)cn(C)c2=O)C2(CCN(c3cnc4[nH]ccc4n3)CC2)C1 (single isomer, unassigned) [Example I-53-a]	50 to 1000 nM
C[C@H]1CN(C(=O)Nc2cc(C(F)(F)F)cn(C)c2=O)C2(CCN(c3cnc4[nH]ccc4n3)CC2)C1 (single isomer, unassigned) [Example I-53-b]	50 to 1000 nM
CC1CN(C(=O)Nc2cc(C(F)(F)F)cn(C)c2=O)C2(CCN(c3cnc4[nH]cc(F)c4n3)CC2)C1 (single isomer, unassigned) [Example I-54-a]	50 to 1000 nM
CC1CN(C(=O)Nc2cc(C(F)(F)F)cn(C)c2=O)C2(CCN(c3cnc4[nH]cc(F)c4n3)CC2)C1 (single isomer, unassigned) [Example I-54-b]	50 to 1000 nM
C[C@@H]1CN(C(=O)Nc2cc(C(F)(F)F)cn(C)c2=O)C2(CCN(c3cnc4[nH]cc(C#N)c4n3)CC2)C1 (single isomer, unassigned) [Example I-60-a]	50 to 1000 nM
C[C@H]1CN(C(=O)Nc2cc(C(F)(F)F)cn(C)c2=O)C2(CCN(c3cnc4[nH]cc(C#N)c4n3)CC2)C1 (single isomer, unassigned) [Example I-60-b]	50 to 1000 nM
CN(C(=O)Nc1cc(C(F)(F)F)cn(C)c1=O)[C@@H]1CCN(c2cnc3[nH]ccc3n2)C[C@H]1F (single isomer, unassigned) [Example I-63-a]	< 10 nM
CN(C(=O)Nc1cc(C(F)(F)F)cn(C)c1=O)[C@H]1CCN(c2cnc3[nH]ccc3n2)C[C@@H]1F (single isomer, unassigned) [Example I-63-b]	< 10 nM
CN(C(=O)Nc1cc(C(F)(F)F)cn(C)c1=O)[C@@H]1CC=C(c2cnc3[nH]ccc3n2)CC1 (single isomer, unassigned) [Example I-82-a]	< 10 nM
CN(C(=O)Nc1cc(C(F)(F)F)cn(C)c1=O)[C@H]1CC=C(c2cnc3[nH]ccc3n2)CC1 (single isomer, unassigned) [Example I-82-b]	< 10 nM
CN1CCC(c2n[nH]c3ncc(N4CC[C@H](N(C)C(=O)Nc5cc(C(F)(F)F)cn(C)c5=O)C(F)(F)C4)cc23)CC1 (single isomer, unassigned) [Example I-122-a]	< 10 nM
CN1CCC(c2n[nH]c3ncc(N4CC[C@@H](N(C)C(=O)Nc5cc(C(F)(F)F)cn(C)c5=O)C(F)(F)C4)cc23)CC1 (single isomer, unassigned) [Example I-122-b]	< 10 nM
CC(=O)N1CCC(c2n[nH]c3ncc(N4CC[C@@H](N(C)C(=O)Nc5cc(C(F)(F)F)cn(C)c5=O)C(F)(F)C4)cc23)CC1 (single isomer, unassigned) [Example I-123-a]	< 10 nM
CC(=O)N1CCC(c2n[nH]c3ncc(N4CC[C@H](N(C)C(=O)Nc5cc(C(F)(F)F)cn(C)c5=O)C(F)(F)C4)cc23)CC1 (single isomer, unassigned) [Example I-123-b]	< 10 nM
CN1CCN(c2n[nH]c3ncc(N4CC[C@@H](N(C)C(=O)Nc5cc(C(F)(F)F)cn(C)c5=O)C(F)(F)C4)cc23)CC1 (single isomer, unassigned) [Example I-154-a, (R)- or (S)-1-(3,3-difluoro-1-(3-(4-methylpiperazin-1-yl)-1H-pyrazolo[3,4-b]pyridin-5-yl)piperidin-4-yl)-1-methyl-3-(1-methyl-2-oxo-5-(trifluoromethyl)-1,2-dihydropyridin-3-yl)urea]	< 10 nM
